Laboratory results: patent US7683078B2, “Arylsulfonamide derivatives as C-Jun-N-Terminal Kinases (JNK's) inhibitors” (Laboratoires Serono S.A., priority 2001, dated 2010)

Target: JNK3 (Homo sapiens, UniProt P53779)
Experiment: JNK3 in vitro assay (33P incorporation into c-jun, SPA)
Assay type: biochemical
Conditions: recombinant pre-activated GST-JNK3, biotinylated GST-c-Jun, 2 μM 33γ-ATP, 120 min R.T.; read-out: inhibition (IC50) with regard to JNK3
Protocol: The phosphorylation of c-jun by JNK2 or JNK3 can be followed by monitoring the incorporation of ^33P into c-jun following the protocol below. The inhibitory activity of the compounds according to formula I, towards c-jun phosphorylation through JNK, is determined by calculating phosphorylation activity in the presence or absence of compounds according to formula I.
JNK3 and/or -2 assays are performed in 96 well MTT plates: incubation of 0.5 μg of recombinant, pre-activated GST-JNK3 or GST-JNK2 with 1 μg of recombinant, biotinylated GST-c-Jun and 2 μM ^33γ-ATP (2 nCi/μl), in the presence or absence of compounds according to formula I and in a reaction volume of 50 μl containing 50 mM Tris-HCl, pH 8.0; 10 mM MgCl2; 1 mM Dithiothreitol, and 100 μM Na3VO4. The incubation is performed for 120 min. at R.T and stopped upon addition of 200 μl of a solution containing 250 μg of Streptavidine-coated SPA beads (Amersham, Inc.)*, 5 mM EDTA, 0.1% Triton-X-100 and 50 μM ATP, in phosphate saline buffer. After incubation for 60 minutes at RT, beads are sedimented by centrifugation at 1500×g for 5 minutes, resuspended in 200 μl of PBS containing 5 mM EDTA, 0.1% Triton X-100 and 50 μM ATP and the radioactivity measured in a scintillation β counter, following sedimentation of the beads as described above. […]

Sequence of JNK3 (P53779 whole entry, species assumed): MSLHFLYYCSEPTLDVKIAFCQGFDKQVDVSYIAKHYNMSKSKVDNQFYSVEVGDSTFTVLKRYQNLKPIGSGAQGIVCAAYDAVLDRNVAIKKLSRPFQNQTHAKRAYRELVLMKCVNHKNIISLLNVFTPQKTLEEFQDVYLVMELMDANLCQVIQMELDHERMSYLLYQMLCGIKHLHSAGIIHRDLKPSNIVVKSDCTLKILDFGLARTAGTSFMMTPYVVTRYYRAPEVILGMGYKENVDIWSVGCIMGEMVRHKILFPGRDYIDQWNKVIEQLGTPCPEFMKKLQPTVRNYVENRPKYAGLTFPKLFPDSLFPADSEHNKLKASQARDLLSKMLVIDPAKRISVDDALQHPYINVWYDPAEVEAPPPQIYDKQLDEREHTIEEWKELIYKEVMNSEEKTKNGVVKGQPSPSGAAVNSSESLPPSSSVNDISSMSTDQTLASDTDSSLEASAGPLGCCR

| Compound | IC50 [nM] |
| --- | --- |
| CN(CCCNCc1ccc(C(F)(F)F)cc1)S(=O)(=O)c1ccc(CNC(=O)c2ccc(Cl)cc2)s1 [Compound 13, 4-Chloro-N-(5-{methyl-[3-(4-trifluoromethyl-benzylamino)-propyl]-sulfamoyl}-thiophen-2-ylmethyl)-benzamide] | 188 |
| CCCCCCNCCCN(C)S(=O)(=O)c1ccc(CNC(=O)c2ccc(Cl)cc2)s1 [Compound 14, 4-Chloro-N-{5-[(3-hexylamino-propyl)-methyl-sulfamoyl]-thiophen-2-ylmethyl}-benzamide] | 184 |
